From US11584775B2, “C4-modified oleanolic acid derivatives for inhibition of IL-17 and other uses” (REATA PHARMACEUTICALS, INC., priority 2015, dated 2023)

Columns and labels:
human RORγ = biological target: T1, human RORγ (Homo sapiens, UniProt P51449); assay: RORγ assay (GAL4-RORγ hybrid luciferase reporter, inverse-agonist activity); type: cell-based; details: GAL4-RORγ hybrid reporter cells, 23 hours
T1 sequence (P51449 269-508 limits assumed): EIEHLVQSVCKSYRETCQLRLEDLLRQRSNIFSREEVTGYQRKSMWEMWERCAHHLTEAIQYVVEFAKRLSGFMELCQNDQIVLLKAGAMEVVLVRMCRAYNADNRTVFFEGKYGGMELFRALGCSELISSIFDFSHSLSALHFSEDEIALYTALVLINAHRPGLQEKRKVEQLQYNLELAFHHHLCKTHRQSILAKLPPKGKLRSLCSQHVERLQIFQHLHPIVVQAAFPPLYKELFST
Description: C. RORγ Assay and Cell Viability
The RORγ assay system was purchased from Indigo Biosciences. This nuclear receptor assay utilizes a human cell line that has been engineered to express a hybrid form of the Human RAR-related Orphan Receptor Gamma (RORγ) at high levels. The N-terminal DNA binding domain (DBD) of the native RORγ receptor was substituted with the yeast GAL4-DBD to generate the GAL4-RORγ hybrid nuclear receptor. The reporter cell line is transfected with a plasmid that encodes the beetle luciferase gene under the control of the GAL4 upstream activating sequence (UAS). GAL4 binds to the UAS and increases transcription of downstream target genes. […] To assess the RORγ inverse-agonist activity of the test compounds, reporter cells were plated in white 96-well plates in triplicate and were treated with DMSO (vehicle) or test compound (concentration ranges of 0.4-200 nM or 2-1000 nM) at 37° C. with 5% CO2 in a humidified atmosphere for 23 hours. After this incubation, luciferin was added to the wells and luciferase activity was determined by measuring the luminescence signal using a BMG Pherastar microplate reader. Viability was determined using the Live Cell Multiplex Assay (Indigo Biosciences). Values from test compound samples were normalized to those from DMSO-treated samples. Data were analyzed using GraphPad Prism version 6.00 for Windows (GraphPad Software, La Jolla Calif. USA). A non-linear regression analysis with log (inhibitor) vs. normalized response using a variable slope was applied to fit the data and determine the IC50 values for inhibition of RORγ and cell viability.

hIL17 = assay: IL-17 release from differentiated primary human T-cells (IL-17A HTRF assay); type: cell-based; details: inhibition of IL-17A levels; primary human CD4+ T cells differentiated into Th17 cells, 46-hour incubation
Experimental: D. IL-17 Release from Differentiated Primary Human T-Cells and Cell Viability
Primary human cryopreserved CD4+ T Cells (Lonza, donor #0000402103) were plated in Lymphocyte Growth Medium-3 (LGM-3, Lonza) according to the manufacturer's recommendations, and allowed to recover for approximately 3 hours at 37° C. with 5% CO2 in a humidified atmosphere. After the recovery step, cells were collected by centrifugation and re-plated in 96-well plates at a density of ˜140,000 cells per well in LGM-3 medium that contained DMSO (vehicle) or test compound (2-500 nM or 4-1000 nM concentration range). Triplicate wells were plated for each test condition. DMSO (final concentration ≤0.1%) was used as the vehicle. Immediately after plating, CD4+ T cells were activated by adding Dynabeads Human T-Activator CD3/CD28 (Life Technologies; bead-to-cell ratio of 1:2.5) and differentiated into Th17 cells by adding a mixture of the following cytokines: transforming growth factor-β (TGF-β, 5 ng/mL), IL-6 (20 ng/mL), IL-23 (20 ng/mL), and […] (10 ng/mL). Undifferentiated control cells received only cytokine IL-2 (50 ng/mL). All human recombinant cytokines were purchased from R&D Systems. Following a 46-hour incubation at 37° C. with 5% CO2 in a humidified atmosphere, the plates were centrifuged for 3 minutes at 250×g, and half of the supernatant was transferred to a new plate to be used in the IL-17A assay (see below). Cell viability was assessed in the original plate using the CyQuant Direct Assay (Life Technologies). CyQuant values from test compound samples were normalized to those from DMSO-treated samples. The concentration of IL-17A in the supernatant was measured using the Homogeneous Time-Resolved Fluorescence (HTRF) assay (Cisbio Bioassays) according to the manufacturer's protocol. The assay was performed at room temperature in low volume, solid white 384-well plates (Greiner Bio-One). Samples and standards (serially-diluted human recombinant IL-17A (0 to 5,000 pg/mL concentration range; Cisbio Bioassays) were incubated with the anti-human IL-17A antibody conjugate for 16 hours and fluorescence was measured using a Pherastar FS microplate reader (BMG Labtech) in the HTRF mode (excitation at 337 nm and emission at 665 nm and 620 nm). IL-17A concentrations were assessed in duplicate aliquots of supernatant from each well resulting in a total of six readings per test condition. The 665 nm/620 nm signal ratio was calculated and the concentration of IL-17A in each sample was determined by interpolation from the standard curve. IL-17A values from test compound samples were normalized to those from DMSO-treated samples. Data were analyzed using GraphPad Prism version 6.00 for Windows (GraphPad Software, La Jolla Calif. USA). A non-linear regression analysis with log (inhibitor) vs. normalized response using a variable slope was applied to fit the data and determine the IC50 values for inhibition of IL-17A levels and cell viability.

NRF2 = assay: AREc32 luciferase reporter assay; type: cell-based, human; details: EC2×: concentration required to increase GST ARE Luciferase reporter activity by 2-fold; AREc32 cells, 19 hours
Description: B. AREc32 Luciferase Reporter Assay
The AREc32 luciferase reporter assay allows for quantitative assessment of the endogenous activity of the Nrf2 transcription factor in cultured mammalian cells. AREc32 cells are derived from MCF-7 human breast carcinoma cells that were stably transfected with a reporter construct that contains the firefly luciferase gene located downstream of eight copies of the rat GSTA2 antioxidant response element (ARE) sequence (Wang et al., 2006; CXR Biosciences). Active NRF2 binds to the ARE sequences and increases expression of the firefly luciferase gene. To assess the NRF2-activating potential of the test compounds, AREc32 cells were plated in black 96-well plates at a density of 20,000 cells per well in triplicate in DMEM+10% FBS+0.8 mg/mL Geneticin and incubated at 37° C. with 5% CO2 in a humidified atmosphere. The next day, cells were treated with DMSO (vehicle) or test compound (concentration ranges of 0.4-200 nM or 2-1000 nM) for 19 hours. Luciferase activity was determined using the ONE-Glo Luciferase assay (Promega). The luminescence signal was measured on a BMG Pherastar microplate reader. The mean luminescence value from test compound-treated wells was normalized to that from DMSO-treated wells and was represented as fold-induction. Data were analyzed using GraphPad Prism version 6.00 for Windows, GraphPad Software, La Jolla Calif. USA. A non-linear regression curve with log (agonist) vs. response using a variable slope was used to fit the data. Where applicable, a maximum threshold value of 50-fold over DMSO was set. EC2× values were interpolated from the curve. EC2× corresponds to the concentration of test compound required to increase GST ARE Luciferase reporter activity by 2-fold.

[1] = tested on: IFNγ-induced Nitric Oxide production; assay: Nitric oxide production assay in RAW 264.7 mouse macrophages; type: cell-based; details: RAW264.7, suppression of IFNγ-induced NO production normalized to cell viability (WST-1), RAW 264.7, 24 hours IFNγ
Experimental: A. Nitric Oxide Production Assay and Cell Viability
RAW 264.7 mouse macrophages were plated in 96-well plates at a density of 30,000 cells per well in triplicate in RPMI 1640+0.5% FBS and incubated at 37° C. with 5% CO2 in a humidified atmosphere. The next day, cells were pre-treated with DMSO (vehicle) or test compound (concentration ranges of 0.4-200 nM or 2-1000 nM) for 2 hours and then treated with recombinant mouse IFNγ (R&D Systems) for 24 hours. Nitric oxide concentration in media was determined using the Griess reagent system (Promega). Cell viability was determined using WST-1 reagent (Roche). Values from test compound samples were normalized to those from DMSO/IFNγ-treated samples. IC50 values were determined based on the suppression of IFNγ-induced Nitric Oxide production normalized to cell viability.

Row | SMILES | IC50 (human RORγ) [µM] | IC50 (hIL17) [µM] | EC2x: concentration giving 2-fold induction of ARE luciferase reporter (NRF2) [nM] | IC50 [1] [µM]
1 | CC(=O)OC[C@]1(C)C(=O)C(C#N)=C[C@]2(C)C3=CC(=O)[C@]45OC(=O)[C@@]6(CCC(C)(C)C[C@H]64)CC[C@@]5(C)[C@]3(C)CC[C@H]21 [Compound T32, ((4R,4aR,6aR,6bS,8aS,12aR,12bS,14bS)-2-cyano-4,6a,6b, 11,11,14b-hexamethyl-3,13,16-trioxo-4,4a,5,6,6a,6b,7,8,10,11,12,12a,13,14b-tetradecahydro-3H,9H-12b,8a-(epoxymethano)picen-4-yl)methyl acetate] | 0.118 | 0.028 | 243 | 0.115
2 | CC1(C)CC[C@@]23CC[C@@]4(C)[C@]5(C)CC[C@H]6[C@](C)(C(N)=O)C(=O)C(C#N)=C[C@]6(C)C5=CC(=O)[C@]4(OC2=O)[C@@H]3C1 [Compound T37, (4S,4aR,6aR,6bS,8aS,12aR,12bS,14bS)-2-cyano-4,6a,6b, 11,11,14b-hexamethyl-3,13,16-trioxo-4,4a,5,6,6a,6b,7,8,10,11,12,12a,13,14b-tetradecahydro-3H,9H-12b,8a-(epoxymethano)picene-4-carboxamide] | 1.35 | 0.336 | >1000 | > 1
3 | COC(=O)C[C@]1(C)C(=O)C(C#N)=C[C@]2(C)C3=CC(=O)[C@@H]4[C@@H]5CC(C)(C)CC[C@]5(C(=O)OC)CC[C@@]4(C)[C@]3(C)CC[C@H]21 [Compound T21, methyl (4aS,6aR,6bS,8aR,9S,12aS,14aR,14bS)-11-cyano-9-(2-methoxy-2-oxoethyl)-2,2,6a,6b,9,12a-hexamethyl-10,14-dioxo-1,3,4,5,6,6a,6b,7,8,8a,9,10,12a,14,14a,14b-hexadecahydropicene-4a(2H)-carboxylate] | 0.203 | 0.033 | 269 | 0.105
4 | COC(=O)[C@]12CCC(C)(C)C[C@H]1[C@H]1C(=O)C=C3[C@@]4(C)C=C(C#N)C(=O)[C@@](C)(C(N)=O)[C@@H]4CC[C@@]3(C)[C@]1(C)CC2 [Compound T15, methyl (4aS,6aR,6bS,8aR,9S,12aS,14aR,14bS)-9-carbamoyl-11-cyano-2,2,6a,6b,9,12a-hexamethyl-10,14-dioxo-1,3,4,5,6,6a,6b,7,8,8a,9,10,12a,14,14a,14b-hexadecahydropicene-4a(2H)-carboxylate] | 0.206 | 0.065 | 612 | 0.714
5 | COC(=O)[C@]12CCC(C)(C)C[C@H]1[C@H]1C(=O)C=C3[C@@]4(C)C=C(C#N)C(=O)C[C@@H]4CC[C@@]3(C)[C@]1(C)CC2 [Compound T1] | 0.144 | 0.04 | 50 | 0.0081
6 | COC(=O)[C@]12CCC(C)(C)C[C@H]1[C@H]1C(=O)C=C3[C@@]4(C)C=C(C#N)C(=O)[C@@](C)(C(=O)N(C)C)[C@@H]4CC[C@@]3(C)[C@]1(C)CC2 [Compound T14] | 0.139 | 0.046 | >1000 | 0.165
7 | CN(C)C(=O)[C@]1(C)C(=O)C(C#N)=C[C@]2(C)C3=CC(=O)[C@]45OC(=O)[C@@]6(CCC(C)(C)C[C@H]64)CC[C@@]5(C)[C@]3(C)CC[C@@H]12 [Compound T36, (4S,4aR,6aR,6bS,8aS,12aR,12bS,14bS)-2-cyano-N,N,4,6a,6b, 11,11,14b-octamethyl-3,13,16-trioxo-4,4a,5,6,6a,6b,7,8,10,11,12,12a,13,14b-tetradecahydro-3H,9H-12b,8a-(epoxymethano)picene-4-carboxamide] | – | 0.126 | >1000 | > 1
8 | CCNC(=O)[C@]12CCC(C)(C)C[C@H]1[C@H]1C(=O)C=C3[C@@]4(C)C=C(C#N)C(=O)[C@@](C)(CO)[C@@H]4CC[C@@]3(C)[C@]1(C)CC2 [Compound T25, (4aS,6aR,6bS,8aR,9R,12aS,14aR,14bS)-11-cyano-N-ethyl-9-(hydroxymethyl)-2,2,6a,6b,9,12a-hexamethyl-10,14-dioxo-1,3,4,5,6,6a,6b,7,8,8a,9,10,12a,14,14a,14b-hexadecahydropicene-4a(2H)-carboxamide] | – | 0.067 | 131 | 0.016
